Experimental data published in patent US20170066717A1, “NEW PHENYLAZETIDINECARBOXYLATE OR -CARBOXAMIDE COMPOUNDS” (INVENTIVA, priority 2014, published 2017).

Columns and labels:
[1] = tested on: dopaminergic neurons of primary culture of rat embryo mesencephalon treated with MPP+; test: Neuroprotection in primary culture of rat embryo mesencephalon treated with MPP+ (count of tyrosine hydroxylase expressing cells); format: cell-based; details: recombinant human BDNF 10 ng/mL = 100%, 2 days with MPP+
In short: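 Rat embryo (E15) mesencephalon cultures, 5 days, then MPP+ with or without compound on day 6 for 2 days. Tyrosine hydroxylase-immunolabelled cells counted by image analysis; activity expressed as percent of recombinant human BDNF (10 ng/mL) reference, set at 100%.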

[2] = Brain penetration in rats after intravenous administration; format: in vivo; details: rat; for Kp at 4 h: male, Wistar, intravenous, 4 mg/kg, ratio of Cmax brain to Cmax plasma after the 4 hours of infusion, rats, read-out: Kp (partition coefficient between the brain and the plasma); for Cmax at 4 h: male Wistar rats, 4 mg/kg iv infusion into the jugular vein for 4 hours, plasma at end of infusion
In short: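 Male Wistar rats (250-300 g, fed, n=4) received test compound by 4-hour jugular vein infusion at 4 mg/kg in 2% Cremophor EL/0.9% NaCl. At the end of infusion, plasma and brain homogenate were analysed by LC-MS/MS; Kp is the brain-to-plasma concentration ratio after 4 hours.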

[3] = tested on: mice treated with 1-methyl-4-phenyl-1,2,3,6-tetrahydropyridine (MPTP); test: Functional activity in a model of mice treated with MPTP (striatal dopamine, TH mRNA in substantia nigra); format: in vivo; details: for action of MPTP (decrease in dopamine level in the striatum and in TH expression level in the substantia nigra): C57BL6/J mice, compound orally twice a day for 11 days, MPTP 20 mg/kg ip once a day for 5 days, FIGS. 1 and 2
Experimental: 3. Study of the Functional Activity in a Mouse Model
A third series of […] tests was carried out with the compounds according to the invention, for the purpose of verifying that the molecules indeed have the expected neuroprotective effect.
The compounds of examples 10 and 118 were tested on a model of mice treated with 1-methyl-4-phenyl-1,2,3,6-tetrahydropyridine (MPTP) in order to confirm their potential activity. MPTP is a neurotoxin which causes the permanent symptoms of Parkinson's disease by destroying the dopaminergic neurons in the substantia nigra. The following protocol: was used.
Male C57BL6/J mice, 10-12 weeks old at the beginning of the studies, were divided up into groups of 12 animals. The compounds wee administered orally, twice a day, for 11 days in total. The administration began 3 days before the treatment with the MPTP toxin at 20 mg/kg. The MPTP was administered once a day by intraperitoneal injection, for 5 days. The admistration of the compounds was continued during the 5 days of MPTP treatment and then for a further 3 days after the MPTP treatment. One group of mice received, orally, the carrier alone (solution of methylcellulose at 1%, 0.1% poloxamer). The annuals were eythanized after rhe final gavage and the striatum and the substantia nigra were removed. The dopamine was extracted from the striatum and the amount of dopamine (DA), expressed in ng per g of striatum (mean±SEM), was measured by high-performance liquid chromatography (HPLC) with electrochemical detection. The messenger RNAs were isolated from the substantia nigra, and the expression level of the mRNAs encoding tyrosine hydroxylase (TH) was measured by quantitative PCR.
The results obtained were reported in appended FIGS. 1 and 2.

SMILES	percentage of activity relative to the BDNF reference ([1]; compound 1 μM) [%]	percentage of activity relative to the BDNF reference ([1]; compound 10 μM) [%]	Kp at 4 h [2]	Cmax at 4 h [2] [ng/mL]	action of MPTP (decrease in dopamine level in the striatum and in TH expression level in the substantia nigra) [3]	tyrosine hydroxylase (TH) expression level (mRNA, substantia nigra, quantitative PCR) ([3]; orally twice a day for 11 days, MPTP-treated mice)
CC1(C)CCC(C)(C)c2cc(-c3cccc(N4CC(C(=O)O)C4)c3)ccc21 [Example 10, 1-[5-(1,1,4,4-tetrametyltetralin-6-yl)phenyl]azetidine-3-carboxylic acid]	44	74	1.28	4300	decrease the action of MPTP in a dose-dependent manner	
CC(C)CC1CN(c2cccc(N3CC(C(=O)O)C3)c2)c2ccc(C(F)(F)F)cc2O1 (centres unmarked) [Example 118, 1-[3-[2-isobutyl-7-(trilfuoromethyl)-2,3-dihydro-1,4-benzoxazin-4-yl]phenyl]azetidine-3-carboxylic acid]	81	61	0.35	3480	decrease the action of MPTP in a dose-dependent manner	capable of re-establishing the tyrosine hydroxylase expression level in the brain
